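48-hour exposure; five concentrations; linearly interpolated endpoints. Abbreviation: GI50, concentration required for 50% inhibition of growth.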 Active and inactive are the calls of the source. Rule as the data show it: active = GI50 up to about 1.1 µM and inactive = higher.
How the values were obtained:
Assay in all cases: inhibition of tumour cell growth, NCI panel, 48 h
HCC 2998 = system: HCC 2998
DMS-273 = system: DMS-273
KM12 = system: KM12
SK-MEL-5 = system: SK-MEL-5
HCT-116 = system: HCT-116
SF-295 = system: SF-295
HOP-92 = system: HOP-92
K562 = system: K562
SW-620 = system: SW-620
U-251 = system: U-251
UACC-62 = system: UACC-62
HCT-15 = system: HCT-15
HL-60 = system: HL-60
786-0 = system: 786-0
HOP-62 = system: HOP-62
SF-539 = system: SF-539
COLO 205 = system: COLO 205
NCI/ADR-RES = system: NCI/ADR-RES
Hs-578T = system: Hs-578T
DU-145 = system: DU-145

Row | Compound | GI50 (HCC 2998) | GI50 (DMS-273) | GI50 (KM12) | GI50 (SK-MEL-5) | GI50 (HCT-116) | GI50 (SF-295) | GI50 (HOP-92) | GI50 (K562) | GI50 (SW-620) | GI50 (U-251) | GI50 (UACC-62) | GI50 (HCT-15) [µM] | GI50 (HL-60) | GI50 (786-0) | GI50 (HOP-62) | GI50 (SF-539) | GI50 (COLO 205) | GI50 (NCI/ADR-RES) | GI50 (Hs-578T) | GI50 (DU-145)
1 | Cc1c2c(cc3c1C(=O)C(=O)C1=C3OC[C@@H]1C)C(C)(C)CCC2 | 20.4 µM (inactive) | 14.4 µM (inactive) | 11.9 µM (inactive) | 13.3 µM (inactive) | 13.8 µM (inactive) | 14.5 µM (inactive) | 21.3 µM (inactive) | 14.9 µM (inactive) | 15.1 µM (inactive) | 16.2 µM (inactive) | 13.2 µM (inactive) | 14.2 | 10.3 µM (inactive) | 23.4 µM (inactive) | 21.5 µM (inactive) | 16.3 µM (inactive) | 7.29 µM (inactive) |  |  | 
2 | [O-][S+]1C(=c2ccc(=C3Sc4ccccc4S3)cc2)Sc2ccccc21 (stereo not given) | 16 µM (inactive) | 18.9 µM (inactive) | 17.4 µM (inactive) | 19.2 µM (inactive) | 25.1 µM (inactive) | 17.1 µM (inactive) | > 67.3 µM (inactive) | > 66.7 µM (inactive) | > 100 µM (inactive) | 14.9 µM (inactive) | 18.1 µM (inactive) | 15.3 | > 100 µM (inactive) | 17 µM (inactive) | 17.7 µM (inactive) | 15.6 µM (inactive) | > 100 µM (inactive) |  |  | 
3 | O=Cn1c2ccccc2c2ccccc21 | > 100 µM (inactive) | > 100 µM (inactive) | > 100 µM (inactive) | > 100 µM (inactive) | > 100 µM (inactive) | > 100 µM (inactive) | > 100 µM (inactive) | > 100 µM (inactive) | > 100 µM (inactive) | > 100 µM (inactive) | > 100 µM (inactive) | > 100 | > 100 µM (inactive) | > 100 µM (inactive) | > 100 µM (inactive) | > 100 µM (inactive) | > 100 µM (inactive) |  |  | 
4 | O=C(NCc1ccccc1)c1cc2ccc(O)c(O)c2cn1 | > 100 µM (inactive) | 17.4 µM (inactive) | 33.2 µM (inactive) | 11.1 µM (inactive) | 17.7 µM (inactive) | 16.9 µM (inactive) | 19.1 µM (inactive) | 33.8 µM (inactive) | 21.4 µM (inactive) | 23.3 µM (inactive) | 18.5 µM (inactive) | 26.7 | 18.8 µM (inactive) | 18 µM (inactive) | 21.3 µM (inactive) | 18.2 µM (inactive) | 32.1 µM (inactive) |  |  | 
5 | S=c1[nH]c(=S)c2nnn(-c3ccccc3)c2[nH]1 | > 100 µM (inactive) | > 100 µM (inactive) | > 100 µM (inactive) | > 100 µM (inactive) | 0.0836 µM (active) |  | > 100 µM (inactive) | > 100 µM (inactive) | > 100 µM (inactive) | > 100 µM (inactive) | > 100 µM (inactive) | > 100 | > 100 µM (inactive) | > 100 µM (inactive) | > 100 µM (inactive) | > 100 µM (inactive) | > 100 µM (inactive) |  |  | 
6 | COc1cc2c3c(c1OC)-c1cc4c(cc1CC3(C#N)N(C(=O)c1ccccc1)CC2)OCO4 (stereo not given) | > 100 µM (inactive) | 21.6 µM (inactive) | > 75.5 µM (inactive) | 29.2 µM (inactive) | 31.9 µM (inactive) | 33.3 µM (inactive) | 8.39 µM (inactive) | 73.5 µM (inactive) | 87.9 µM (inactive) | 21.1 µM (inactive) | 16.4 µM (inactive) | > 100 | > 100 µM (inactive) | 29.1 µM (inactive) | 42.1 µM (inactive) | 17.7 µM (inactive) | > 100 µM (inactive) | > 60 µM (inactive) | 19.6 µM (inactive) | > 100 µM (inactive)
7 | C/C(=C\C(C)COCc1ccccc1)[C@H](COCc1ccccc1)OCc1ccccc1 (stereo not given in full) | > 100 µM (inactive) | > 100 µM (inactive) | > 100 µM (inactive) | 37.6 µM (inactive) | 85.1 µM (inactive) | > 100 µM (inactive) | 10.4 µM (inactive) | 73.1 µM (inactive) | > 100 µM (inactive) | > 100 µM (inactive) | > 100 µM (inactive) | > 100 | > 10 µM (inactive) | > 100 µM (inactive) | > 100 µM (inactive) | > 100 µM (inactive) | > 100 µM (inactive) |  |  | 
8 | COc1cc(C2c3cc4c(cc3[C@H](NC(=O)c3cccs3)C3COC(=O)[C@H]23)OCO4)cc(OC)c1OC (stereo not given in full) | < 0.0181 µM (active) | 0.0188 µM (active) | < 0.01 µM (active) | < 0.014 µM (active) | < 0.0131 µM (active) | < 0.01 µM (active) | 0.0198 µM (active) | < 0.0156 µM (active) | < 0.016 µM (active) | < 0.0148 µM (active) | < 0.0128 µM (active) | < 0.0214 | < 0.01 µM (active) | < 0.0221 µM (active) | < 0.0144 µM (active) | < 0.01 µM (active) | 0.0109 µM (active) | 0.026 µM (active) |  | < 0.01 µM (active)

From ChEMBL document CHEMBL1201862, “PubChem BioAssay data set” (2004)
